Source: US5041567A, “Antibacterial monic acid derivatives” (Beecham Group plc, priority 1982, dated 1991)
≈ marks a conversion by molar mass, not a printed value. Where two headings read alike, the source gives them in different places.

Assays:
M. suipneumoniae NB12 = experiment: MIC against mycoplasma in vitro; type: cell-based; conditions: Mesomycoplasma hyopneumoniae, 144 h; M. suipneumoniae NB12; Friis broth, 0.9% agarose, 6 days, 37° C.; read-out: MIC
M. suipneumoniae HK(2) = experiment: MIC against mycoplasma in vitro; type: cell-based; conditions: Mesomycoplasma hyopneumoniae, 144 h; M. suipneumoniae HK(2); 6 days, 37° C.; read-out: MIC
[1] = system: M. suipneumoniae J2206/183^b; experiment: MIC against mycoplasma in vitro; type: cell-based; conditions: Mesomycoplasma hyopneumoniae, 144 h; M. suipneumoniae J2206/183^b; 6 days, 37° C.; read-out: MIC
M. suipneumoniae MS 16 = experiment: MIC against mycoplasma in vitro; type: cell-based; conditions: Mesomycoplasma hyopneumoniae, MS16, 144 h
M. suipneumoniae LABER = experiment: MIC against mycoplasma in vitro; type: cell-based; conditions: Mesomycoplasma hyopneumoniae, 144 h
M. suipneumoniae UCD 1 = experiment: MIC against mycoplasma in vitro; type: cell-based; conditions: Mesomycoplasma hyopneumoniae, UCD1, 144 h
M. suipneumoniae TAM 6N = experiment: MIC against mycoplasma in vitro; type: cell-based; conditions: Mesomycoplasma hyopneumoniae, TAM6N, 144 h; M. suipneumoniae TAM 6N; 6 days, 37° C.; read-out: MIC
[2] = system: M. suipneumoniae ATCC 25095; experiment: MIC against mycoplasma in vitro; type: cell-based; conditions: Mesomycoplasma hyopneumoniae, ATCC25095, 144 h
M. hyorhinis ATCC 23234 = experiment: MIC against mycoplasma in vitro; type: cell-based; conditions: Mesomycoplasma hyorhinis, ATCC23234, 144 h
M. hyorhinis ATCC 25021 = experiment: MIC against mycoplasma in vitro; type: cell-based; conditions: Mesomycoplasma hyorhinis, ATCC25021, 144 h
[3] = system: M. hyosynoviae ATCC 25591; experiment: MIC against mycoplasma in vitro; type: cell-based; conditions: 144 h
M. bovis NCTC 10131 = experiment: microbe, parasite or virus in culture; type: cell-based; conditions: NCTC10131, 144 h
P. mirabilis 889 = experiment: MIC against human bacteria in vitro; type: cell-based; conditions: Proteus mirabilis; P. mirabilis 889; 5% chocolated horse blood agar, 18 hours; read-out: MIC
K. aerogenes A = experiment: MIC against human bacteria in vitro; type: cell-based; conditions: Klebsiella aerogenes; K. aerogenes A; 5% chocolated horse blood agar, 18 hours; read-out: MIC
[4] = system: Ps. aeruginosa NCTC 10662; experiment: MIC against human bacteria in vitro; type: cell-based; conditions: Pseudomonas aeruginosa, NCTC10662; Ps. aeruginosa NCTC 10662; 5% chocolated horse blood agar, 18 hours; read-out: MIC
[5] = system: Haemophilus influenzae Wy21; experiment: MIC against human bacteria in vitro; type: cell-based; conditions: Haemophilus influenzae Wy21; 5% chocolated horse blood agar, 18 hours; read-out: MIC
[6] = system: Neisseria catarrhalis 1502; experiment: MIC against human bacteria in vitro; type: cell-based
[7] = system: Corynebacterium xerosis 9755; experiment: MIC against human bacteria in vitro; type: cell-based; conditions: Corynebacterium xerosis 9755; 5% chocolated horse blood agar, 18 hours; read-out: MIC
Sarcina lutea 8340 = experiment: MIC against human bacteria in vitro; type: cell-based; conditions: Micrococcus luteus; Sarcina lutea 8340; 5% chocolated horse blood agar, 18 hours; read-out: MIC
Staph. aureus Russell = experiment: MIC against human bacteria in vitro; type: cell-based; conditions: Staphylococcus aureus
Staph. aureus W2827 = experiment: MIC against human bacteria in vitro; type: cell-based; conditions: Staphylococcus aureus
Strep. faecalis I = experiment: MIC against human bacteria in vitro; type: cell-based; conditions: Enterococcus faecalis; Strep. faecalis I; 5% chocolated horse blood agar, 18 hours; read-out: MIC
Strep. agalactiae 2788-B = experiment: MIC against human bacteria in vitro; type: cell-based; conditions: Streptococcus agalactiae; Strep. agalactiae 2788-B; 5% chocolated horse blood agar, 18 hours; read-out: MIC
Strep. pneumoniae CN33 = experiment: MIC against human bacteria in vitro; type: cell-based; conditions: Streptococcus pneumoniae; Strep. pneumoniae CN33; 5% chocolated horse blood agar, 18 hours; read-out: MIC
Bord. bronchiseptica B08 = experiment: MIC against veterinary bacteria in vitro; conditions: Bordetella bronchiseptica, B08, 18 h
Experimental: (§1) The activity of the compounds of the Examples against various veterinarily important bacteria, was assayed in vitro using two-fold serial dilutions in Diagnostic Sensitivity Test Agar inoculated with 10^4 organisms.

Bord. bronchiseptica B09 = experiment: MIC against veterinary bacteria in vitro; conditions: Bordetella bronchiseptica, B09, 18 h
Experimental: as §1

Past. multocida PA1 = experiment: MIC against veterinary bacteria in vitro; conditions: Pasteurella multocida, PA1, 18 h
Experimental: as §1

Past. multocida PA2 = experiment: MIC against veterinary bacteria in vitro; conditions: Pasteurella multocida, PA2, 18 h
Experimental: as §1

Past. haemolytica PA5 = experiment: MIC against veterinary bacteria in vitro; conditions: Mannheimia haemolytica, PA5, 18 h
Experimental: as §1

[8] = system: Erysipelothrix rhusiopathiae NCTC 8163; experiment: MIC against veterinary bacteria in vitro; conditions: Erysipelothrix rhusiopathiae, NCTC8163, 18 h
Experimental: as §1

[9] = system: Corynebacterium pyogenes CY1; experiment: MIC against veterinary bacteria in vitro; conditions: CY1, 18 h
Experimental: as §1

[10] = system: Staph. aureus B4 (pen. resistant); experiment: MIC against veterinary bacteria in vitro; conditions: Staphylococcus aureus, 18 h
Experimental: as §1

[11] = system: Strep. suis (group D) SPS11; experiment: MIC against veterinary bacteria in vitro; conditions: Streptococcus suis, 18 h
Experimental: as §1

Strep. dysgalactiae SPD1 = experiment: MIC against veterinary bacteria in vitro; conditions: Streptococcus dysgalactiae, SPD1, 18 h
Experimental: as §1

[12] = system: M. bovigenitalium ATCC 14173; experiment: MIC against mycoplasma in vitro; type: cell-based; conditions: 144 h

| SMILES | MIC (M. suipneumoniae NB12) [µg/mL] | MIC [1] [µg/mL] | MIC (M. suipneumoniae TAM 6N) [µg/mL] | MIC [3] [µg/mL] | MIC (M. bovis NCTC 10131) [µg/mL] | MIC (P. mirabilis 889) [µg/mL] | MIC (K. aerogenes A) [µg/mL] | MIC [4] [µg/mL] | MIC [5] [µg/mL] | MIC [7] [µg/mL] | MIC (Sarcina lutea 8340) [µg/mL] | MIC (Strep. faecalis I) [µg/mL] | MIC (Strep. agalactiae 2788-B) [µg/mL] | MIC (Strep. pneumoniae CN33) [µg/mL] | MIC (Bord. bronchiseptica B08) [µg/mL] | MIC (Bord. bronchiseptica B09) [µg/mL] | MIC (Past. multocida PA1) [µg/mL] | MIC (Past. multocida PA2) [µg/mL] | MIC (Past. haemolytica PA5) [µg/mL] | MIC [8] [µg/mL] | further results |
| --- | --- | --- | --- | --- | --- | --- | --- | --- | --- | --- | --- | --- | --- | --- | --- | --- | --- | --- | --- | --- | --- |
| C/C(=C\c1ncc(-c2ccccc2)o1)C[C@@H]1OC[C@H](C[C@@H]2O[C@H]2[C@@H](C)[C@H](C)O)[C@@H](O)[C@H]1O [Example 1, 2-(1-normon-2-yl)-5-phenyloxazole A] | 1 (≈ 2.25 µM) | 1 (≈ 2.25 µM) | 1 (≈ 2.25 µM) | 0.5 (≈ 1.13 µM) | ≤ 0.01 | > 100 | > 100 | > 100 | 1 (≈ 2.25 µM) | > 100 | ≥ 100 | ≥ 100 | 5 (≈ 11.3 µM) | 2.5 (≈ 5.64 µM) | 80 (≈ 180 µM) | 20 (≈ 45.1 µM) | 10 (≈ 22.5 µM) | 1.25 (≈ 2.82 µM) | 80 (≈ 180 µM) | 80 (≈ 180 µM) | MIC (M. suipneumoniae HK(2)): 1 µg/mL (≈ 2.25 µM); MIC (M. suipneumoniae MS 16): 0.5 µg/mL (≈ 1.13 µM); MIC (M. suipneumoniae LABER): 0.5 µg/mL (≈ 1.13 µM); MIC (M. suipneumoniae UCD 1; M. suipneumoniae UCD 1, 6 days, 37° C., read-out: MIC): 1 µg/mL (≈ 2.25 µM); MIC [2]: 0.5 µg/mL (≈ 1.13 µM); MIC (M. hyorhinis ATCC 23234): 0.5 µg/mL (≈ 1.13 µM); MIC (M. hyorhinis ATCC 25021): 0.5 µg/mL (≈ 1.13 µM); MIC ([6]; Neisseria catarrhalis 1502, 5% chocolated horse blood agar, 18 hours, read-out: MIC): 10 µg/mL (≈ 22.5 µM); MIC (Staph. aureus Russell; Staph. aureus Russell, 5% chocolated horse blood agar, 18 hours, read-out: MIC): 5 µg/mL (≈ 11.3 µM); MIC (Staph. aureus W2827; Staph. aureus W2827, 5% chocolated horse blood agar, 18 hours, read-out: MIC): 5 µg/mL (≈ 11.3 µM); MIC [9]: 80 µg/mL (≈ 180 µM); MIC [10]: 1.25 µg/mL (≈ 2.82 µM); MIC [11]: 20 µg/mL (≈ 45.1 µM); MIC (Strep. dysgalactiae SPD1): 0.625 µg/mL (≈ 1.41 µM) |
| C/C(=C\c1ncc(-c2cccc(C#N)c2)o1)C[C@@H]1OC[C@H](C[C@@H]2O[C@H]2[C@@H](C)[C@H](C)O)[C@@H](O)[C@H]1O [Example 5, 5-m-cyanophenyl-2-(1-normon-2-yl)oxazole A] | 0.05 (≈ 0.107 µM) | 0.1 (≈ 0.213 µM) | 0.1 (≈ 0.213 µM) | 0.25 (≈ 0.534 µM) | ≤ 0.01 | > 50 | > 50 | > 50 | 1.2 (≈ 2.56 µM) | > 50 | > 50 | 50 (≈ 107 µM) | 2.5 (≈ 5.34 µM) | 2.5 (≈ 5.34 µM) | 80 (≈ 171 µM) | 40 (≈ 85.4 µM) | 5 (≈ 10.7 µM) | 2.5 (≈ 5.34 µM) | 40 (≈ 85.4 µM) | 80 (≈ 171 µM) | MIC (M. suipneumoniae MS 16; M. suipneumoniae MS 16, 6 days, 37° C., read-out: MIC): 0.05 µg/mL (≈ 0.107 µM); MIC (M. suipneumoniae LABER; M. suipneumoniae LABER, 6 days, 37° C., read-out: MIC): 0.05 µg/mL (≈ 0.107 µM); MIC (M. suipneumoniae UCD 1): 0.1 µg/mL (≈ 0.213 µM); MIC ([2]; M. suipneumoniae ATCC 25095, 6 days, 37° C., read-out: MIC): 0.05 µg/mL (≈ 0.107 µM); MIC (M. hyorhinis ATCC 23234; M. hyorhinis ATCC 23234, 6 days, 37° C., read-out: MIC): 0.05 µg/mL (≈ 0.107 µM); MIC (M. hyorhinis ATCC 25021; M. hyorhinis ATCC 25021, 6 days, 37° C., read-out: MIC): 0.05 µg/mL (≈ 0.107 µM); MIC [12]: 0.025 µg/mL (≈ 0.0534 µM); MIC ([6]; Neisseria, 1502, 18 h): 5 µg/mL (≈ 10.7 µM); MIC (Staph. aureus Russell; 18 h): 5 µg/mL (≈ 10.7 µM); MIC (Staph. aureus W2827; W2827, 18 h): 5 µg/mL (≈ 10.7 µM); MIC [9]: 80 µg/mL (≈ 171 µM); MIC [10]: 1.25 µg/mL (≈ 2.67 µM); MIC [11]: 10 µg/mL (≈ 21.3 µM); MIC (Strep. dysgalactiae SPD1): 0.312 µg/mL (≈ 0.666 µM) |
